Laboratory results taken from patent US20220089578A1, “COMPOUNDS AS GLP-1R AGONISTS” (Terns Pharmaceuticals, Inc., priority 2020, published 2022).

Target: human GLP-1R (Homo sapiens, UniProt P43220)
Experiment: GLP-1R Cell Assay 1: cAMP Hunter CHO-K1 GLP1R Gs cell line, HitHunter cAMP assay
Format: cell-based
Details: cAMP Hunter CHO-K1 GLP1R Gs cells, percent activity normalized to Exendin-4
Method in brief: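 CHO-K1 cells overexpressing wild-type human GLP-1R treated with 3-fold serially diluted compounds for 30-60 min at 37 °C. cAMP measured by EFC competitive luminescent immunoassay; activity normalised to Exendin-4, duplicate runs, EC50 by nonlinear regression.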

Sequence of human GLP-1R (P43220 24-463): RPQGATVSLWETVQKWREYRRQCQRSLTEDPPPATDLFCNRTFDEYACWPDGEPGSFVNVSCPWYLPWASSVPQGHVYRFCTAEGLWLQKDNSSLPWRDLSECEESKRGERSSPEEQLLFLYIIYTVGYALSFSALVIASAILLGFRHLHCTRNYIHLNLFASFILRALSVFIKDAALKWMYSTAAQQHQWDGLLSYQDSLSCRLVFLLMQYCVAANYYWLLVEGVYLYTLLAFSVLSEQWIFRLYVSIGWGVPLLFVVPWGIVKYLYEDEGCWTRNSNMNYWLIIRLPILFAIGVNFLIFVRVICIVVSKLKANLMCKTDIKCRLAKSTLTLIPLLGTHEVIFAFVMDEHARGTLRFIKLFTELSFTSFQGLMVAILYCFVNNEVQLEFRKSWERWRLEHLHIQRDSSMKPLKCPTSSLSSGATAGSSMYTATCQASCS

CCn1ccnc1Cn1c(CN2CC[C@@]3(c4cccc(N5CCc6cc(C#N)cc(F)c6C5)n4)C[C@H]3C2)nc2ccc(C(=O)O)cc21 [Compound 163-P1, 2-(((1R,6S)-6-(6-(6-cyano-8-flluoro-3,4-dihydroisoquinolin-2(1H)-yl)pyridin-2-yl)-3-azabicyclo[4.1.0]heptan-3-yl)methyl)-1-((1-ethyl-1H-imidazol-2-yl)methyl)-1H-benzo[d]imidazole-6-carboxylic acid]
EC50 (Table 3): 0.266 nM

O=C(O)c1ccc2nc(CN3CC[C@]4(c5cccc(OCc6ccccc6)n5)C[C@@H]4C3)n(C[C@@H]3CCO3)c2c1 [Compound 97, 2-(((1S,6R)-6-(6-(benzyloxy)pyridin-2-yl)-3-azabicyclo[4.1.0]heptan-3-yl)methyl)-1-(((S)-oxetan-2-yl)methyl)-1H-benzo[d]imidazole-6-carboxylic acid]
EC50 (Table 2): 18.6 nM

Cn1cnc2ccc(COc3cccc(N4CCN(Cc5nc6ccc(C(=O)O)cc6n5C[C@@H]5CCO5)CC4)n3)cc21 [Compound 72, (S)-2-((4-(6-((1-methyl-1H-benzo[d]imidazol-6-yl)methoxy)pyridin-2-yl)piperazin-1-yl)methyl)-1-(oxetan-2-ylmethyl)-1H-benzo[d]imidazole-6-carboxylic acid]
EC50 (Table 2): 4.6 nM

O=C(O)c1ccc2nc(CN3CCN(c4cccc(OCc5ccc6ocnc6c5)n4)CC3)n(C[C@@H]3CCO3)c2c1 [Compound 103, (S)-2-((4-(6-(benzo[d]oxazol-5-ylmethoxy)pyridin-2-yl)piperazin-1-yl)methyl)-1-(oxetan-2-ylmethyl)-1H-benzo[d]imidazole-6-carboxylic acid]
EC50 (Table 2): 5.54 nM

O=C(O)c1ccc2nc(CN3CCN(c4cccc(OCc5nc6cc(Cl)ccc6s5)n4)CC3)n(C[C@@H]3CCO3)c2c1 [Compound 112, (S)-2-((4-(6-((5-chlorobenzo[d]thiazol-2-yl)methoxy)pyridin-2-yl)piperazin-1-yl)methyl)-1-(oxetan-2-ylmethyl)-1H-benzo[d]imidazole-6-carboxylic acid]
EC50 (Table 2): 1.24 nM

N#Cc1ccc(Cn2ncc3ccc(N4CCN(Cc5nc6ccc(C(=O)O)cc6n5C[C@@H]5CCO5)CC4)nc32)c(F)c1 [Compound 30, (S)-2-((4-(1-(4-cyano-2-fluorobenzyl)-1H-pyrazolo[3,4-b]pyridin-6-yl)piperazin-1-yl)methyl)-1-(oxetan-2-ylmethyl)-1H-benzo[d]imidazole-6-carboxylic acid]
EC50 (Table 2): 16.3 nM

N#Cc1cccc2c1CCCN2c1cccc(N2CCN(Cc3nc4ccc(C(=O)O)cc4n3C[C@@H]3CCO3)CC2)n1 [Compound 5, (S)-2-((4-(6-(5-cyano-3,4-dihydroquinolin-1(2H)-yl)pyridin-2-yl)piperazin-1-yl)methyl)-1-(oxetan-2-ylmethyl)-1H-benzo[d]imidazole-6-carboxylic acid]
EC50 (Table 2): 315 nM

O=C(O)c1ccc2nc(CN3CC[C@@]4(c5cccc(OCc6ccc(Cl)cc6Cl)n5)C[C@H]4C3)n(C[C@@H]3CCO3)c2c1 (single isomer, unassigned) [Compound 126-P1]
EC50 (Table 2): 0.174 nM

N#Cc1ccc(COc2cccc(N3CCN(Cc4nc5ccc(C(=O)O)cc5n4C[C@@H]4CCO4)CC3)n2)nc1 [Compound 62, (S)-2-((4-(6-((5-cyanopyridin-2-yl)methoxy)pyridin-2-yl)piperazin-1-yl)methyl)-1-(oxetan-2-ylmethyl)-1H-benzo[d]imidazole-6-carboxylic acid]
EC50 (Table 2): 0.86 nM

N#Cc1ccc([C@@H]2CCc3c(cccc3N3CCN(Cc4nc5ccc(C(=O)O)cc5n4C[C@@H]4CCO4)CC3)O2)c(F)c1 (single isomer, unassigned) [Compound 151-P2]
EC50 (Table 3): > 500 nM

O=C(O)c1ccc2nc(CN3CCN(c4cccc(OC5(c6ccccc6)COC5)n4)CC3)n(C[C@@H]3CCO3)c2c1 [Compound 45, (S)-1-(oxetan-2-ylmethyl)-2-((4-(6-((3-phenyloxetan-3-yl)oxy)pyridin-2-yl)piperazin-1-yl)methyl)-1H-benzo[d]imidazole-6-carboxylic acid]
EC50 (Table 2): 21.7 nM

N#Cc1ccc2c(c1)CCN(c1cccc(N3CCN(Cc4nc5ccc(C(=O)O)cc5n4C[C@@H]4CCO4)CC3)n1)C2 [Compound 60, (S)-2-((4-(6-(6-cyano-3,4-dihydroisoquinolin-2(1H)-yl)pyridin-2-yl)piperazin-1-yl)methyl)-1-(oxetan-2-ylmethyl)-1H-benzo[d]imidazole-6-carboxylic acid]
EC50 (Table 2): 8.18 nM

N#Cc1cccc2c1CN(c1cccc(N3CCN(Cc4nc5ccc(C(=O)O)cc5n4C[C@@H]4CCO4)CC3)n1)CCC2 [Compound 80, (S)-2-((4-(6-(9-cyano-1,3,4,5-tetrahydro-2H-benzo[c]azepin-2-yl)pyridin-2-yl)piperazin-1-yl)methyl)-1-(oxetan-2-ylmethyl)-1H-benzo[d]imidazole-6-carboxylic acid]
EC50 (Table 2): 37.9 nM

N#Cc1ccc2c(c1)CN(c1cccc(N3CCN(Cc4nc5ccc(C(=O)O)cc5n4C[C@@H]4CCO4)CC3)n1)CCC2 [Compound 66, (S)-2-((4-(6-(8-cyano-1,3,4,5-tetrahydro-2H-benzo[c]azepin-2-yl)pyridin-2-yl)piperazin-1-yl)methyl)-1-(oxetan-2-ylmethyl)-1H-benzo[d]imidazole-6-carboxylic acid]
EC50 (Table 2): 135 nM

N#Cc1ccc(COc2cccc(N3CCN(Cc4nc5ccc(C(=O)O)cc5n4C[C@@H]4CCO4)CC3)c2)c(F)c1 [Compound 150, (S)-2-((4-(3-((4-cyano-2-fluorobenzyl)oxy)phenyl)piperazin-1-yl)methyl)-1-(oxetan-2-ylmethyl)-1H-benzo[d]imidazole-6-carboxylic acid]
EC50 (Table 3): 0.9 nM

O=C(O)c1ccc2nc(CN3CCN(c4cccc(OCC5CCOCC5)n4)CC3)n(C[C@@H]3CCO3)c2c1 [Compound 33, (S)-1-(oxetan-2-ylmethyl)-2-((4-(6-((tetrahydro-2H-pyran-4-yl)methoxy)pyridin-2-yl)piperazin-1-yl)methyl)-1H-benzo[d]imidazole-6-carboxylic acid]
EC50 (Table 2): > 500 nM

N#Cc1ccc(COc2cccc(C3CCN([C@H]4CCCn5c4nc4ccc(C(=O)O)cc45)CC3)n2)c(F)c1 [Compound 89, (S)-4-(4-(6-((4-cyano-2-fluorobenzyl)oxy)pyridin-2-yl)piperidin-1-yl)-1,2,3,4-tetrahydrobenzo[4,5]imidazo[1,2-a]pyridine-8-carboxylic acid]
EC50 (Table 2): 76.2 nM

CN(Cc1ccc(C(N)=O)cc1)c1cccc(N2CCN(Cc3nc4ccc(C(=O)O)cc4n3C[C@@H]3CCO3)CC2)n1 [Compound 64, (S)-2-((4-(6-((4-carbamoylbenzyl)(methyl)amino)pyridin-2-yl)piperazin-1-yl)methyl)-1-(oxetan-2-ylmethyl)-1H-benzo[d]imidazole-6-carboxylic acid]
EC50 (Table 2): > 500 nM

O=C(O)c1ccc2nc(CN3CCN(c4cccc(OC5CCC6(CCC6)CC5)n4)CC3)n(C[C@@H]3CCO3)c2c1 [Compound 49, (S)-1-(oxetan-2-ylmethyl)-2-((4-(6-(spiro[3.5]nonan-7-yloxy)pyridin-2-yl)piperazin-1-yl)methyl)-1H-benzo[d]imidazole-6-carboxylic acid]
EC50 (Table 2): > 500 nM

N#Cc1cccc2c1CCCN(c1cccc(N3CCN(Cc4nc5ccc(C(=O)O)cc5n4C[C@@H]4CCO4)CC3)n1)C2 [Compound 78, (S)-2-((4-(6-(6-cyano-1,3,4,5-tetrahydro-2H-benzo[c]azepin-2-yl)pyridin-2-yl)piperazin-1-yl)methyl)-1-(oxetan-2-ylmethyl)-1H-benzo[d]imidazole-6-carboxylic acid]
EC50 (Table 2): 56.2 nM

Cc1cn(C2CCN(Cc3nc4ccc(C(=O)O)cc4n3C[C@@H]3CCO3)CC2)nc1OCc1ccc(C#N)cc1F [Compound 114]
EC50 (Table 2): 5.11 nM

N#Cc1ccc(COc2ncccc2[C@@]23CCN(Cc4nc5ccc(C(=O)O)cc5n4CC4CCO4)C[C@@H]2C3)c(F)c1 (single isomer, unassigned) [Compound 167, 2-((6-(2-((4-cyano-2-fluorobenzyl)oxy)pyridin-3-yl)-3-azabicyclo[4.1.0]heptan-3-yl)methyl)-1-(oxetan-2-ylmethyl)-1H-benzo[d]imidazole-6-carboxylic acid]
EC50 (Table 3): 266 nM

O=C(O)c1ccc2nc(CN3CCN(c4cccc(OCc5cc6ccccc6cn5)n4)CC3)n(C[C@@H]3CCO3)c2c1 [Compound 85, (S)-2-((4-(6-(isoquinolin-3-ylmethoxy)pyridin-2-yl)piperazin-1-yl)methyl)-1-(oxetan-2-ylmethyl)-1H-benzo[d]imidazole-6-carboxylic acid]
EC50 (Table 2): 6.11 nM

O=C(O)c1ccc2nc(CN3CCN(c4cccc(OCc5nc6cc(F)ccc6s5)n4)CC3)n(C[C@@H]3CCO3)c2c1 [Compound 119, (S)-2-((4-(6-((5-fluorobenzo[d]thiazol-2-yl)methoxy)pyridin-2-yl)piperazin-1-yl)methyl)-1-(oxetan-2-ylmethyl)-1H-benzo[d]imidazole-6-carboxylic acid]
EC50 (Table 2): 0.552 nM

N#Cc1ccc(COc2cccc(C34CCN(Cc5nc6ccc(C(=O)O)cc6n5C[C@@H]5CCO5)CC3C4)n2)c(F)c1 (stereo partly drawn) [Compound 9, 2-((6-(6-((4-cyano-2-fluorobenzyl)oxy)pyridin-2-yl)-3-azabicyclo[4.1.0]heptan-3-yl)methyl)-1-((S)-oxetan-2-ylmethyl)-1H-benzo[d]imidazole-6-carboxylic acid]
EC50 (Table 2): 0.476 nM

O=C(O)c1ccc2nc(CN3CCN(c4ccc5c(n4)N(Cc4ccccc4)C(=O)CC5)CC3)n(C[C@@H]3CCO3)c2c1 [Compound 158, (S)-2-((4-(8-benzyl-7-oxo-5,6,7,8-tetrahydro-1,8-naphthyridin-2-yl)piperazin-1-yl)methyl)-1-(oxetan-2-ylmethyl)-1H-benzo[d]imidazole-6-carboxylic acid]
EC50 (Table 3): > 500 nM

O=C(O)c1ccc2nc(CN3CCC(c4cccc(OCc5ncc(Cl)s5)n4)CC3)n(C[C@@H]3CCO3)c2c1 [Compound 134, (S)-2-((4-(6-((5-chlorothiazol-2-yl)methoxy)pyridin-2-yl)piperidin-1-yl)methyl)-1-(oxetan-2-ylmethyl)-1H-benzo[d]imidazole-6-carboxylic acid]
EC50 (Table 2): 0.222 nM
